Here are results for one compound from US20240156800A1, “EP300 DEGRADER AND USES THEREOF IN NEUROBLASTOMA” (DANA-FARBER CANCER INSTITUTE, INC., priority 2021, published 2024).

This test relates to Kelly-Cas9 control or CRBN knockout cells. The experiment in a line: CellTiter-Glo assay of Kelly-Cas9 control or CRBN knockout cells. It counts as cell-based, human. The following applies: range of doses, seven days. On the procedure:
Cells were infected with lentiviruses encoding sgRNAs or treated with compounds as described. Colony assays were performed by replating cells at 500 cells per well in 6-well dishes and grown in regular growth media for 10 d before 100% methanol fixation, 0.05% crystal violet staining, and quantitation. Experiments were completed in triplicate; data shown are the average of three independent experiments. Cell Titer-Glo® assay was performed as per the manufacturer's instructions (Promega®). Briefly, 1000 cells/well were plated into 96-well plates and treated with a range of compound dosing. Cell viability was measured at the noted time points based on luminescence by the Cell Titer-Glo® assay (Promega®) and read on an Envision 2104 (PerkinElmer®, USA) according to the manufacturer's protocol.
sgRNAs targeting individual genes were subcloned by standard methodologies within pLKO.5-EFGP. Kelly, SIMA, BE2C, and NGP cells were infected with lenticas9 followed by blasticidin selection. Stable expression of cas9 was established by western blotting of protein lysates using cas9 antibody (Cell Signaling Technology®). Following infection of pLKO.5-EGFP-sgRNA lentivirus, cells were cultured for the identified times prior to evaluation. BE2C cells were infected with pLC-zsgreen or pLC-CRBN lentiviruses and selected using 500 μg/mL hygromycin (Invitrogen™)

Turning to `C[C@H](N(Cc1ccc(F)cc1)C(=O)CN1C(=O)O[C@@]2(CCc3cc(NC(=O)CCCCCCCCCCCNc4ccc5c(c4)C(=O)N(C4CCC(=O)NC4=O)C5=O)ccc32)C1=O)C(F)(F)F` (stereo partly drawn) [JQAD1, 12-((2-(2,6-dioxopiperidin-3-yl)-1,3-dioxoisoindolin-5-yl)amino)-N-((R)-3′-(2-((4-fluorobenzyl)((S)-1,1,1-trifluoropropan-2-yl)amino)-2-oxoethyl)-2′,4′-dioxo-2,3-dihydrospiro[indene-1,5′-oxazolidin]-5-yl)dodecanamide], the “growth of CRBN-knockout Kelly cells” value is recorded as “resistant” and the “growth of control-edited Kelly cells” value was “potently killed”.
